From BindingDB's records for patent US20250163061 (Bala Therapeutics, 2025)
pEC50: −log10 of the molar value.

What follows are molecules tested against T1, Menin (Homo sapiens, UniProt O00255) (assay: Primary Assay Used to Determine Potency of MEN1 Activity Inhibition).
T1 sequence (O00255 whole entry): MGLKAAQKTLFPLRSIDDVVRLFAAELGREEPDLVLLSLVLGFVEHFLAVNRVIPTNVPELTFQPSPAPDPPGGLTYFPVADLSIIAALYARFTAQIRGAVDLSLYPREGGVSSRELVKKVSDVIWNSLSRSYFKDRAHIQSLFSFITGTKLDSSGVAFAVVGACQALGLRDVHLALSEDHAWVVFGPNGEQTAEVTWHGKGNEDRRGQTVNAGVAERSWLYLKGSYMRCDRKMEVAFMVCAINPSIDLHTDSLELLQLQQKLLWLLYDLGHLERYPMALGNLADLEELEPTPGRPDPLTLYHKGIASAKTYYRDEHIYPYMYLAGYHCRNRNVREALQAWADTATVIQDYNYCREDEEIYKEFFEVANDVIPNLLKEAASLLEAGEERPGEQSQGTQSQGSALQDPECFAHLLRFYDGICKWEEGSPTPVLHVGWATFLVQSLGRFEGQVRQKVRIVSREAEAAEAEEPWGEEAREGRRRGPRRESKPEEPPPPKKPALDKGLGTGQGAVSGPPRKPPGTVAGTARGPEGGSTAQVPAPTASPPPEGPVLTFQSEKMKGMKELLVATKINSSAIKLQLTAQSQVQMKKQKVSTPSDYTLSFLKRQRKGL
Description: Compound activity was determined using recombinant MEN1 protein (Creativebiomart, Cat #MEN1-35H) and a custom fluorescein-labeled MLL4-43 peptide (Eton Bioscience Inc.). Interaction between MEN1 and MLL4-43 in the presence of compounds was determined by fluorescence polarization assay using a Microplate Reader ClarioStar Plus. The reaction was carried out in assay buffer (50 mM TRIS-HCl pH 7.4-7.6, 50 mM NaCl, 1 mM DTT, 0.1 mg/ml BSA). The compounds were dispensed on a 384 well Diamond Well Plate (Axigen, Cat #P-384-120SQ-C-S) using the Biomek FX liquid handling system at 100× solutions of compounds in DMSO. 2×MEN1 mix (final concentration of MEN1 10 nM) was prepared in Assay buffer and 10 μl of mixture per well was added into 384 w white Reaction plate with NBS (Corning, Cat #4513). 10 μl of Assay buffer w/o MEN1 was used for negative control. Plates were centrifuged for 1 min at 100 g. Next step the Compounds were added to Reaction plate using Biomek station via following steps: 3 μl of 100× compounds (in DMSO) were mixed thoroughly with 27 μl Assay Buffer, then 2 μl of this mixture was added to Reaction plate with 10 μl of MEN1 mix. Plates were centrifuged for 1 min at 100 g and incubated for 20 min at room temperature. Next 8 μL of MLL4-43 peptide per well was added to final concentration of MLL 0.5 nM. Plates were incubated for 1 hour at room temperature. Then fluorescence polarization was measured using Microplate Reader.

| Structure (SMILES) | pEC50 |
| --- | --- |
| Cc1c(CN2CCC3(CC2)CN(c2ncnc4ccc(CC(F)(F)F)cc24)C3)ccc2c1cc(C#N)n2CCN1CCNC1=O | > 7.12 |
| Cc1c(CN2CCC3(CC2)CN(c2ncnc4ccc(CC(F)(F)F)cc24)C3)ccc2c1cc(C#N)n2CC12CC(NS(C)(=O)=O)(C1)C2 | > 7.12 |
| N#Cc1cc2cc(CN3CCC4(CC3)CN(c3ncnc5ccc(CC(F)(F)F)cc35)C4)ccc2[nH]1 | > 7.12 |
| Cc1c(CN2CCC3(CC2)CN(c2ncnc4ccc(OC(F)(F)F)cc24)C3)ccc2c1cc(C#N)n2C[C@@H]1CNC(=O)CO1 [US20250163061, Compound 1] | > 7.12 |
| Cc1c(CN2CCC3(CC2)CN(c2ncnc4ccc(CC(F)(F)F)cc24)C3)ccc2c1cc(C#N)n2CC1CCNC(=O)CO1 (stereo not drawn) [US20250163061, Compound 2] | > 7.12 |
| Cc1c(CN2CCC3(CC2)CN(c2ncnc4ccc(CC(F)(F)F)cc24)C3)ccc2c1cc(C#N)n2CC1CNC(=O)NC1 [US20250163061, Compound 4] | > 7.12 |
| Cc1c(CN2CCC3(CC2)CN(c2ncnc4ccc(CC(F)(F)F)cc24)C3)ccc2c1cc(C#N)n2CC1CCNC(=O)CC1 (stereo not drawn) [US20250163061, Compound 5] | > 7.12 |
| Cc1c(CN2CCC3(CC2)CN(c2ncnc4ccc(CC(F)(F)F)cc24)C3)ccc2c1cc(C#N)n2CC1CNC(=O)C(C)O1 (stereo not drawn) [US20250163061, Compound 7] | > 7.12 |
| Cc1c(CN2CCC3(CC2)CN(c2ncnc4ccc(CC(F)(F)F)c(F)c24)C3)ccc2c1cc(C#N)n2CC1CNC(=O)CO1 (stereo not drawn) [US20250163061, Compound 12] | > 7.12 |
| Cc1c(CN2CCC3(CC2)CN(c2ncnc4ccc(CC(F)(F)F)cc24)C3)ccc2c1cc(C#N)n2C(C)CCN1CCN(S(C)(=O)=O)CC1 (stereo not drawn) [US20250163061, Compound 13] | > 7.12 |
| Cc1c(CN2CCC3(CC2)CN(c2ncnc4ccc(CC(F)(F)F)cc24)C3)ccc2c1cc(C#N)n2Cc1ccc(=O)[nH]c1 [US20250163061, Compound 14] | > 7.12 |
| Cc1c(CN2CCC3(CC2)CN(c2ncnc4ccc(CC(F)(F)F)cc24)C3)ccc2c1cc(C#N)n2CC1CN(C)C(=O)CO1 (stereo not drawn) [US20250163061, Compound 15] | > 7.12 |
| Cc1c(CN2CCC3(CC2)CN(c2ncnc4ccc(CC(F)(F)F)cc24)C3)ccc2c1cc(C#N)n2CC1CN(C)S(=O)(=O)CO1 (stereo not drawn) [US20250163061, Compound 16] | > 7.12 |
| CCCCS(=O)(=O)N1CCN(C(C)Cn2c(C#N)cc3c(C)c(CN4CCC5(CC4)CN(c4ncnc6ccc(CC(F)(F)F)cc46)C5)ccc32)CC1 (stereo not drawn) [US20250163061, Compound 17] | > 7.12 |
| COc1cc2c(cc1CN1CCC3(CC1)CN(c1ncnc4ccc(CC(F)(F)F)cc14)C3)cc(C#N)n2CC(C)N1CCN(S(C)(=O)=O)CC1 (stereo not drawn) [US20250163061, Compound 20] | > 7.12 |
| Cc1c(CN2CCC3(CC2)CN(c2ncnc4ccc(CC(F)(F)F)cc24)C3)ccc2c1cc(C#N)n2CC1CNS(=O)(=O)CO1 (stereo not drawn) [US20250163061, Compound 21] | > 7.12 |
| Cc1c(CN2CCC3(CC2)CN(c2ncnc4ccc(CC(F)(F)F)cc24)C3)ccc2c1cc(C#N)n2CC1CCNC(=O)C1 (stereo not drawn) [US20250163061, Compound 22] | > 7.12 |
| Cc1c(CN2CCC3(CC2)CN(c2ncnc4ccc(CC(F)(F)F)cc24)C3)ccc2c1cc(C#N)n2[C@H](C)CN1CCN(S(C)(=O)=O)CC1 [US20250163061, Compound 23] | > 7.12 |
| Cc1c(CN2CCC3(CC2)CN(c2ncnc4ccc(CC(F)(F)F)cc24)C3)ccc2c1cc(C#N)n2[C@@H](C)CN1CCN(S(C)(=O)=O)CC1 [US20250163061, Compound 24] | > 7.12 |
| CCS(=O)(=O)N1CCN([C@H](C)Cn2c(C#N)cc3c(C)c(CN4CCC5(CC4)CN(c4ncnc6ccc(CC(F)(F)F)cc46)C5)ccc32)C[C@@H]1C [US20250163061, Compound 25] | > 7.12 |
| CCS(=O)(=O)N1CCN([C@@H](C)Cn2c(C#N)cc3c(C)c(CN4CCC5(CC4)CN(c4ncnc6ccc(CC(F)(F)F)cc46)C5)ccc32)C[C@@H]1C [US20250163061, Compound 26] | > 7.12 |
| Cc1c(CN2CCC3(CC2)CN(c2ncnc4ccc(CC(F)(F)F)cc24)C3)ccc2c1cc(C#N)n2C[C@@H](C)N1CCN(S(C)(=O)=O)[C@@H](C)C1 [US20250163061, Compound 27] | > 7.12 |

| Structure (SMILES) | pEC50 |
| --- | --- |
| Cc1c(CN2CCC3(CC2)CN(c2ncnc4ccc(CC(F)(F)F)cc24)C3)ccc2c1cc(C#N)n2C[C@H](C)N1CCN(S(C)(=O)=O)[C@@H](C)C1 [US20250163061, Compound 28] | > 7.12 |
| Cc1c(CN2CCC3(CC2)CN(c2ncnc4ccc(CC(F)(F)F)cc24)C3)ccc2c1cc(C#N)n2CC(C)N1CCCN(S(C)(=O)=O)CC1 (stereo not drawn) [US20250163061, Compound 29] | > 7.12 |
| Cc1c(CN2CCC3(CC2)CN(c2ncnc4cc(F)c(CC(F)(F)F)cc24)C3)ccc2c1cc(C#N)n2CC(C)N1CCN(S(C)(=O)=O)CC1 (stereo not drawn) [US20250163061, Compound 30] | > 7.12 |
| Cc1c(CN2CCC3(CC2)CN(c2ncnc4ccc(CC(F)(F)F)cc24)C3)ccc2c1cc(C#N)n2C[C@H]1CC[C@H](NS(C)(=O)=O)CC1 [US20250163061, Compound 40] | > 7.12 |
| Cc1c(CN2CCC3(CC2)CN(c2ncnc4ncc(CC(F)(F)F)nc24)C3)ccc2c1cc(C#N)n2CC(C)N1CCN(S(C)(=O)=O)CC1 (stereo not drawn) [US20250163061, Compound 42] | > 7.12 |
| Cc1c(CN2CCC3(CC2)CN(c2ncnc4ccc(CC(F)(F)F)cc24)C3)ccc2c1cc(C#N)n2CCCCN1CCN(S(C)(=O)=O)CC1 [US20250163061, Compound 44] | > 7.12 |
| Cc1c(CN2CCC3(CC2)CN(c2ncnc4cnc(CC(F)(F)F)cc24)C3)ccc2c1cc(C#N)n2CC(C)N1CCN(S(C)(=O)=O)CC1 (stereo not drawn) [US20250163061, Compound 45] | > 7.12 |
| Cc1c(CN2CCC3(CC2)CN(c2ncnc4ccc(CC(F)(F)F)cc24)C3)ccc2c1cc(C#N)n2CC1CNC(=O)C1 (stereo not drawn) [US20250163061, Compound 51] | > 7.12 |
| Cc1c(CN2CCC3(CC2)CN(c2ncnc4ccc(CC(F)(F)F)cc24)C3)ccc2c1cc(C#N)n2CC1CCC(=O)N1 (stereo not drawn) [US20250163061, Compound 52] | > 7.12 |
| Cc1c(CN2CCC3(CC2)CN(c2ncnc4ccc(CC(F)(F)F)c(F)c24)C3)ccc2c1cc(C#N)n2C[C@H](C)N1CCN(S(C)(=O)=O)CC1 [US20250163061, Compound 57] | > 7.12 |
| CNc1nc(N2CC3(CCN(Cc4ccc5c(cc(C#N)n5C[C@@H]5CNC(=O)CO5)c4C)CC3)C2)c2cc(CC(F)(F)F)ccc2n1 [US20250163061, Compound 58] | > 7.12 |
| CC(=O)NC12CC(Cn3c(C#N)cc4c(C)c(CN5CCC6(CC5)CN(c5ncnc7ccc(CC(F)(F)F)cc57)C6)ccc43)(C1)C2 [US20250163061, Compound 59] | > 7.12 |
| CNC(=O)NC12CC(Cn3c(C#N)cc4c(C)c(CN5CCC6(CC5)CN(c5ncnc7ccc(CC(F)(F)F)cc57)C6)ccc43)(C1)C2 [US20250163061, Compound 60] | > 7.12 |
| Cc1c(CN2CCC3(CC2)CN(c2ncnc4ccc(CC(F)(F)F)cc24)C3)ccc2c1cc(C#N)n2CC12CC(NS(N)(=O)=O)(C1)C2 [US20250163061, Compound 61] | > 7.12 |
| Cc1c(CN2CCC3(CC2)CN(c2ncnc4ccc(CC(F)(F)F)cc24)C3)ccc2c1cc(C#N)n2CC12CC(N3CC(=O)NS3(=O)=O)(C1)C2 [US20250163061, Compound 62] | > 7.12 |
| C=CC(=O)N1CCN(C(C)Cn2c(C#N)cc3c(C)c(CN4CCC5(CC4)CN(c4ncnc6ccc(CC(F)(F)F)cc46)C5)ccc32)CC1 (stereo not drawn) [US20250163061, Compound 63] | > 7.12 |
| Cc1c(CN2CCC3(CC2)CN(c2ncnc4ccc(CC(F)(F)F)cc24)C3)ccc2c1cc(C#N)n2CC(C)N1CCN(S(=O)(=O)C(C)C)CC1 (stereo not drawn) [US20250163061, Compound 64] | > 7.12 |
| C=CC(=O)N1CCN(CCCCn2c(C#N)cc3c(C)c(CN4CCC5(CC4)CN(c4ncnc6ccc(CC(F)(F)F)cc46)C5)ccc32)CC1 [US20250163061, Compound 65] | > 7.12 |
| C=CC(=O)N1CCN(CCCn2c(C#N)cc3c(C)c(CN4CCC5(CC4)CN(c4ncnc6ccc(CC(F)(F)F)cc46)C5)ccc32)CC1 [US20250163061, Compound 66] | > 7.12 |
| Cc1c(CN2CCC3(CC2)CN(c2ncnc4ccc(CC(F)(F)F)nc24)C3)ccc2c1cc(C#N)n2CC(C)N1CCN(S(C)(=O)=O)CC1 (stereo not drawn) [US20250163061, Compound 67] | > 7.12 |
| Cc1c(CN2CCC3(CC2)CN(c2ncnc4ccc(CC(F)(F)F)cc24)C3)ccc2[nH]c(C#N)cc12 [US20250163061, Compound 68] | > 7.12 |
